Experimental data published in US9586950B2 (MERCK SHARP & DOHME CORP., priority 2012, dated 2017).
Like-named read-outs stand apart in the source and are kept apart here.

Legend:
human orexin-2 receptor [1] = molecular target: T1, human orexin-2 receptor (Homo sapiens (Human), UniProt O43614); assay: FLIPR Ca2+ Flux Assay, hOX2R FLIPR; assay type: cell-based; details: CHO cells, 70 pM Ala-6,12 human orexin-A agonist
Method: (§1) In a typical experiment the OX1 and OX2 receptor antagonistic activity of the compounds of the present invention was determined in accordance with the following experimental method. For intracellular calcium measurements, Chinese hamster ovary (CHO) cells expressing the rat orexin-1 receptor or the human orexin-2 receptor, are grown in Iscove's modified DMEM containing 2 mM L-glutamine, […], 1% hypoxanthine-thymidine supplement, 100 U/ml penicillin, 100 μg/ml streptomycin and 10% heat-inactivated fetal calf serum (FCS). The cells are seeded at 20,000 cells/well into Becton-Dickinson black 384-well clear bottom sterile plates coated with poly-D-lysine. All reagents were from GIBCO-Invitrogen Corp. The seeded plates are incubated overnight at 37° C. and 5% CO2. Ala-6,12 human orexin-A as the agonist is prepared as a 1 mM stock solution in 1% bovine serum albumin (BSA) and diluted in assay buffer (HBSS containing 20 mM HEPES, 0.1% BSA and 2.5 mM probenecid, pH7.4) for use in the assay at a final concentration of 70 pM. Test compounds are prepared as 10 mM stock solution in DMSO, then diluted in 384-well plates, first in DMSO, then assay buffer. On the day of the assay, cells are washed 3 times with 100 μl assay buffer and then incubated for 60 min (37° C., 5% CO2) in 60 μl assay buffer containing 1 μM Fluo-4AM ester, 0.02% pluronic acid, and 1% BSA. The dye loading solution is then aspirated and cells are washed 3 times with 100 μl assay buffer. 30 μl of that same buffer is left in each well. Within the Fluorescent Imaging Plate Reader (FLIPR, Molecular Devices), test compounds are added to the plate in a volume of 25 μl, incubated for 5 min and finally 25 μl of agonist is added. Fluorescence is measured for each well at 1 second intervals for 5 minutes and the height of each fluorescence peak is compared to the height of the fluorescence peak induced by 70 pM Ala-6,12 orexin-A with buffer in place of antagonist. […] Alternatively, compound potency can be assessed by a radioligand binding assay (described in Bergman et. al. Bioorg. Med. Chem. Lett. 2008, 18, 1425-1430) in which the inhibition constant (Ki) is determined in membranes prepared from CHO cells expressing either the OX1 or OX2 receptor. The intrinsic orexin receptor antagonist activity of a compound which may be used in the present invention may be determined by these assays.

[2] = molecular target: T2, hOX1R (orexin-1 receptor) (Rattus norvegicus, UniProt P56718); assay: FLIPR Ca2+ Flux Assay, hOX1R FLIPR; assay type: cell-based; details: CHO cells, 70 pM Ala-6,12 human orexin-A agonist
Method: as §1

human orexin-2 receptor [3] = molecular target: T1, human orexin-2 receptor; assay: radioligand binding assay, hOX2R BIND
Method: as §1

[4] = molecular target: T2, hOX1R (orexin-1 receptor); assay: radioligand binding assay, hOX1R BIND; details: membranes from CHO cells expressing OX1 receptor; read-out: hOX1R BIND hKi
Method: In a typical experiment the OX1 and OX2 receptor antagonistic activity of the compounds of the present invention was determined in accordance with the following experimental method. For intracellular calcium measurements, Chinese hamster ovary (CHO) cells expressing the rat orexin-1 receptor or the human orexin-2 receptor, are grown in Iscove's modified DMEM containing 2 mM L-glutamine, […], 1% hypoxanthine-thymidine supplement, 100 U/ml penicillin, 100 μg/ml streptomycin and 10% heat-inactivated fetal calf serum (FCS). The cells are seeded at 20,000 cells/well into Becton-Dickinson black 384-well clear bottom sterile plates coated with poly-D-lysine. […] Within the Fluorescent Imaging Plate Reader (FLIPR, Molecular Devices), test compounds are added to the plate in a volume of 25 μl, incubated for 5 min and finally 25 μl of agonist is added. Fluorescence is measured for each well at 1 second intervals for 5 minutes and the height of each fluorescence peak is compared to the height of the fluorescence peak induced by 70 pM Ala-6,12 orexin-A with buffer in place of antagonist. […] Alternatively, compound potency can be assessed by a radioligand binding assay (described in Bergman et. al. Bioorg. Med. Chem. Lett. 2008, 18, 1425-1430) in which the inhibition constant (Ki) is determined in membranes prepared from CHO cells expressing either the OX1 or OX2 receptor. […]

[5] = membranes from CHO cells expressing OX2 receptor, read-out: hOX2R BIND hKi

T1 sequence (O43614 whole entry): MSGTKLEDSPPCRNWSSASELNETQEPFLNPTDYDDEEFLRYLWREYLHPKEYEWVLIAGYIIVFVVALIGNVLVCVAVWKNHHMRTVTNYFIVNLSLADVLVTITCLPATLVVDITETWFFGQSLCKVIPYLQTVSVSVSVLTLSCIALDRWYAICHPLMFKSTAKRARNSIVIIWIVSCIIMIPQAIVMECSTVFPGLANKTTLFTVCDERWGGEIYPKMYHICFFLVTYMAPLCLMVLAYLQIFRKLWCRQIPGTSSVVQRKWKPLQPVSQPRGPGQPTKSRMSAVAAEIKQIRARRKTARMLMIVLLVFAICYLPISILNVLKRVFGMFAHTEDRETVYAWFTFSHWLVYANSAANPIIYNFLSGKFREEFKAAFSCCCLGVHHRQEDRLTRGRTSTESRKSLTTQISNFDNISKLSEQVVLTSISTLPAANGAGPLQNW
T2 sequence (P56718 whole entry, looked up): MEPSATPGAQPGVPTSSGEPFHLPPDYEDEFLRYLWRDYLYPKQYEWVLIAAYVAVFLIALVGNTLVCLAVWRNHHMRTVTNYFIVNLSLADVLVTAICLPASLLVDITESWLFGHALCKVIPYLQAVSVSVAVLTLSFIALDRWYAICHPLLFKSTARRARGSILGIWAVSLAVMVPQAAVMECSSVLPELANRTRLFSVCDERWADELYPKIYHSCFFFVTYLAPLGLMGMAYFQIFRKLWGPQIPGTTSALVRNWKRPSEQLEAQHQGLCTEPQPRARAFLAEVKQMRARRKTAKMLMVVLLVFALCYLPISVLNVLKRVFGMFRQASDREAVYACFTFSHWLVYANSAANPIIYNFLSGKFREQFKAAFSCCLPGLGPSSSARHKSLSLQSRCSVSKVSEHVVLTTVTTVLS

What does the source list for `COC(=O)c1c(C#N)ccnc1O[C@@H]1CC[C@@H](C)N(C(=O)c2c(C)cccc2-n2nccn2)C1` [Example 19, methyl 4-cyano-2-{[(3R,6R)-6-methyl-1-{[2-methyl-6-(2H-1,2,3-triazol-2-yl)phenyl]carbonyl}piperidin-3-yl]oxy}pyridine-3-carboxylate]?
IC50 (human orexin-2 receptor [1]): 16.9 nM; IC50 [2]: 208 nM; Ki (human orexin-2 receptor [3]; [5]): 0.26 nM

`COC(=O)c1c(C#N)ccnc1O[C@@H]1CCC(C)N(C(=O)c2ccccc2-c2ncccn2)C1` (stereo partly shown) [Example 20] was tested. Which Ki [4] did it give?
The Ki was 30.8 nM.

What about the IC50 (human orexin-2 receptor [1]) of the same molecule?
The IC50 was 23.8 nM.

What about the IC50 [2] of the same molecule?
Its IC50 is 417 nM.

And the Ki (human orexin-2 receptor [3]; [5])?
The Ki was 0.54 nM.

Which results are given for `COC(=O)c1c(C#N)ccnc1O[C@@H]1CC[C@@H](C)N(C(=O)c2ccc(F)cc2-c2ncccn2)C1` [Example 22, methyl 4-cyano-2-({(3R,6R)-1-[(4-fluoro-2-pyrimidin-2-ylphenyl)carbonyl]-6-methylpiperidin-3-yl}oxy)pyridine-3-carboxylate]?
IC50 (human orexin-2 receptor [1]): 33.6 nM; IC50 [2]: 711 nM; Ki (human orexin-2 receptor [3]; [5]): 0.68 nM

Which results are given for `COC(=O)c1c(C#N)ccnc1O[C@@H]1CC[C@@H](C)N(C(=O)c2cc(F)ccc2-c2ncccn2)C1` [Example 23, methyl 4-cyano-2-({(3R,6R)-1-[(5-fluoro-2-pyrimidin-2-ylphenyl)carbonyl]-6-methylpiperidin-3-yl}oxy)pyridine-3-carboxylate]?
IC50 (human orexin-2 receptor [1]): 32 nM; IC50 [2]: 417 nM; Ki (human orexin-2 receptor [3]; [5]): 0.47 nM

How did the IC50 (human orexin-2 receptor [1]) turn out when `COC(=O)c1c(C#N)ccnc1O[C@@H]1CC[C@@H](C)N(C(=O)c2ccccc2-n2ncnn2)C1` [Example 25] was run?
Its IC50 is 7 nM.

And the IC50 [2]?
The IC50 was 1290 nM.

What about the Ki (human orexin-2 receptor [3]) of the same molecule?
The Ki was 0.76 nM.
